{"source": "paper PMC4156053", "about": "“A Conserved Mitochondrial ATP-binding Cassette Transporter Exports Glutathione Polysulfide for Cytosolic Metal Cofactor Assembly” (The Journal of Biological Chemistry, 2014)", "target": "T1, ATM3 (Arabidopsis thaliana, UniProt Q9LVM1)", "T1 construct": "gene ABCB25; inside-out membrane vesicles or Ni-NTA purified in detergent; half-transporter that dimerizes", "T1 sequence (Q9LVM1 61-728)": "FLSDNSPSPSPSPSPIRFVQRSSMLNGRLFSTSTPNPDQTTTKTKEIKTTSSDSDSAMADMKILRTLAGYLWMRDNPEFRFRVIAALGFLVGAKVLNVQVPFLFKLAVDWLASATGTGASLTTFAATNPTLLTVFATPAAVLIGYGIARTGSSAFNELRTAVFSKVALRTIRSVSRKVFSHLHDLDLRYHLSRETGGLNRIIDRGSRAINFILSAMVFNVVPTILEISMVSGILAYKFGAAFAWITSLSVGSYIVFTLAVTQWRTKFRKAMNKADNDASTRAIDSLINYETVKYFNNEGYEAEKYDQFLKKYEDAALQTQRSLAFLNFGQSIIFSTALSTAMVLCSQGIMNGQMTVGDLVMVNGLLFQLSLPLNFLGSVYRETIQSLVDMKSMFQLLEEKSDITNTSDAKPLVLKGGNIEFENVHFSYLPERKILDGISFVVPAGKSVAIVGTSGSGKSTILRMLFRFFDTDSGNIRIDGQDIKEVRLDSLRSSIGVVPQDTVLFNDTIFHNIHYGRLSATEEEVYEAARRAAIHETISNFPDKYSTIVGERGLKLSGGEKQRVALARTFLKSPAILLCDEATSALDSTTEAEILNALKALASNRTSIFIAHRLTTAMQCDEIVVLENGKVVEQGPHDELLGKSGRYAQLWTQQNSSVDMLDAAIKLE", "experiment": "ATPase activity, malachite green Pi release", "format": "biochemical", "conditions": "5 mM Na-ATP, 5 mM MgCl2, 0.1 M HEPES-KOH pH 7.0, 30 °C", "data": [{"molecule": "Nc1ncnc2c1ncn2[C@@H]1O[C@H](COP(=O)(O)OP(=O)(O)OP(=O)(O)O)[C@@H](O)[C@H]1O", "note": "[ATP]", "values": [{"measurement": "ATPase activity, malachite green Pi release", "result": "retained their ATPase activity in detergent solution"}]}]}
